# Experimental data from PubChem BioAssay AID1963835 (Molecular Pharmacology Branch, DTP, NCI, 2024).
# Test system: 699152-130-R-J1-PDC complex spheroid viability
# Assay: Anticancer human tumor 699152-130-R-J1-PDC patient-derived pancreatic carcinoma cell line growth inhibition [POLQ]
# Conditions: for IC50: curve of first compound; for viability, T/C: stronger effect = lower value
# Procedure, shortened: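 Complex spheroid viability model combining PDC tumour cells with endothelial (HUVEC) and MSC stromal cells. Novobiocin, ART-558 or RP6685 were tested singly and in combination with standard and investigational anticancer drugs. Each was titrated in half-log steps from near clinical Cmax, or from 10 microM where Cmax was unknown.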
# [1] = second compound 0.0316 µM, first compound 0.000316 µM
# [2] = second compound 0.0316 µM, first compound 0.001 µM
# [3] = second compound 0.0316 µM, first compound 0.00316 µM
# [4] = second compound 0.0316 µM, first compound 0.01 µM
# [5] = second compound 0.0316 µM, first compound 0.0316 µM
# [6] = second compound 0.0316 µM, first compound 0.1 µM
# [7] = second compound 0.1 µM, first compound 0.000316 µM
# [8] = second compound 0.1 µM, first compound 0.001 µM
# [9] = second compound 0.1 µM, first compound 0.00316 µM
# [10] = second compound 0.1 µM, first compound 0.01 µM
# [11] = second compound 0.1 µM, first compound 0.0316 µM
# [12] = second compound 0.1 µM, first compound 0.1 µM
# [13] = second compound 0.316 µM, first compound 0.000316 µM
# [14] = second compound 0.316 µM, first compound 0.001 µM
# [15] = second compound 0.316 µM, first compound 0.00316 µM
# [16] = second compound 0.316 µM, first compound 0.01 µM
# [17] = second compound 0.316 µM, first compound 0.0316 µM
# [18] = second compound 0.316 µM, first compound 0.1 µM
# [19] = second compound 1 µM, first compound 0.000316 µM
# [20] = second compound 1 µM, first compound 0.001 µM
# [21] = second compound 1 µM, first compound 0.00316 µM
# [22] = second compound 1 µM, first compound 0.01 µM
# [23] = second compound 1 µM, first compound 0.0316 µM
# [24] = second compound 1 µM, first compound 0.1 µM
# [25] = second compound 3.16 µM, first compound 0.000316 µM
# [26] = second compound 3.16 µM, first compound 0.001 µM
# [27] = second compound 3.16 µM, first compound 0.00316 µM
# [28] = second compound 3.16 µM, first compound 0.01 µM
# [29] = second compound 3.16 µM, first compound 0.0316 µM
# [30] = second compound 3.16 µM, first compound 0.1 µM
# [31] = second compound 10 µM, first compound 0.000316 µM
# [32] = second compound 10 µM, first compound 0.001 µM
# [33] = second compound 10 µM, first compound 0.00316 µM
# [34] = second compound 10 µM, first compound 0.01 µM
# [35] = second compound 10 µM, first compound 0.0316 µM
# [36] = second compound 10 µM, first compound 0.1 µM
# 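Further: spheroids exposed to agents for 7 days before viability reading.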
# 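Wherever viability, T/C is given: percent of DMSO vehicle control viability so 100% = vehicle and 0% = no viable signal.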
compound,measurement,setting,value
Cn1ncnc1[C@H]1c2n[nH]c(=O)c3cc(F)cc(c23)N[C@@H]1c1ccc(F)cc1 + Cc1cccc(N(C)C(=O)C2C(O)CCN2c2nc(C)cc(C(F)(F)F)c2C#N)c1,IC50,second compound 0.0316 µM,> 0.1 µM
same,IC50,second compound 0.1 µM,> 0.1 µM
same,IC50,second compound 0.316 µM,> 0.1 µM
same,IC50,second compound 1 µM,> 0.1 µM
same,IC50,second compound 3.16 µM,> 0.1 µM
same,IC50,second compound 10 µM,> 0.1 µM
same,"viability, T/C",[1],103%
same,"viability, T/C",[2],87.7%
same,"viability, T/C",[3],95.1%
same,"viability, T/C",[4],88.6%
same,"viability, T/C",[5],99.4%
same,"viability, T/C",[6],81%
same,"viability, T/C",[7],100%
same,"viability, T/C",[8],100%
same,"viability, T/C",[9],91.6%
same,"viability, T/C",[10],99.3%
same,"viability, T/C",[11],85.3%
same,"viability, T/C",[12],86.6%
same,"viability, T/C",[13],94.8%
same,"viability, T/C",[14],97.6%
same,"viability, T/C",[15],86.4%
same,"viability, T/C",[16],89.3%
same,"viability, T/C",[17],117%
same,"viability, T/C",[18],73.6%
same,"viability, T/C",[19],100%
same,"viability, T/C",[20],89.6%
same,"viability, T/C",[21],95%
same,"viability, T/C",[22],87.2%
same,"viability, T/C",[23],108%
same,"viability, T/C",[24],87.2%
same,"viability, T/C",[25],94.1%
same,"viability, T/C",[26],102%
same,"viability, T/C",[27],93.8%
same,"viability, T/C",[28],95.7%
same,"viability, T/C",[29],93%
same,"viability, T/C",[30],90.7%
same,"viability, T/C",[31],104%
same,"viability, T/C",[32],81.8%
same,"viability, T/C",[33],97.1%
same,"viability, T/C",[34],88.5%
same,"viability, T/C",[35],101%
same,"viability, T/C",[36],83.5%
CC[C@@]1(O)C(=O)OCc2c1cc1n(c2=O)Cc2cc3c(CN(C)C)c(O)ccc3nc2-1 + Nc1ccc(C#CCN(C(=O)Cc2ncc(C(F)(F)F)cc2C(F)(F)F)c2ccc(F)cc2)nn1,IC50,second compound 0.0316 µM,> 0.1 µM
same,IC50,second compound 0.1 µM,> 0.1 µM
same,IC50,second compound 0.316 µM,> 0.1 µM
same,IC50,second compound 1 µM,> 0.1 µM
same,IC50,second compound 3.16 µM,> 0.1 µM
same,IC50,second compound 10 µM,> 0.1 µM
same,"viability, T/C",[1],109%
same,"viability, T/C",[2],106%
same,"viability, T/C",[3],97.9%
same,"viability, T/C",[4],91.8%
same,"viability, T/C",[5],80.6%
same,"viability, T/C",[6],65.9%
same,"viability, T/C",[7],100%
same,"viability, T/C",[8],108%
same,"viability, T/C",[9],95.3%
same,"viability, T/C",[10],92.1%
same,"viability, T/C",[11],84.4%
same,"viability, T/C",[12],57.7%
same,"viability, T/C",[13],99.7%
same,"viability, T/C",[14],105%
same,"viability, T/C",[15],102%
same,"viability, T/C",[16],90%
same,"viability, T/C",[17],80.1%
same,"viability, T/C",[18],73.2%
same,"viability, T/C",[19],113%
same,"viability, T/C",[20],97.8%
same,"viability, T/C",[21],109%
same,"viability, T/C",[22],97%
same,"viability, T/C",[23],82.6%
same,"viability, T/C",[24],69.9%
same,"viability, T/C",[25],102%
same,"viability, T/C",[26],105%
same,"viability, T/C",[27],95.8%
same,"viability, T/C",[28],108%
same,"viability, T/C",[29],85.2%
same,"viability, T/C",[30],62.2%
same,"viability, T/C",[31],109%
same,"viability, T/C",[32],119%
same,"viability, T/C",[33],123%
same,"viability, T/C",[34],114%
same,"viability, T/C",[35],108%
same,"viability, T/C",[36],68%
